Values joined by “and” are separate entries in the source; they are usually repeats but may differ in a detail not shown here. Identical values can stand only once. “Also recorded” adds a separate entry of the source. Marks after values point to notes of the source that are not given here.
Key:
[1] = system: advanced NSCLC with PD-L1 ≥50% and brain metastases; assay: EMPOWER-Lung 1 phase 3 subgroup analysis: clinical outcomes in patients with treated stable brain metastases; type: in vivo, human
Excerpt: Primary Endpoints: The primary endpoints are OS and PFS (per RECIST 1.1, Eisenhauer 2009). Overall survival is defined as the time from randomization to the date of death. A patient who has not died is censored at the last known date of contact. Progression-free survival is defined as the time from randomization to the date of the first documented tumor progression or death due to any cause. Patients are censored according to the following rules: […] Secondary Endpoints: A key secondary endpoint in the study is ORR. Objective response rate is defined as the number of patients with a best overall response (BOR) of confirmed CR or PR divided by the number of patients in the efficacy analysis set. Best overall response is defined as the best overall response (per RECIST 1.1) between the date of randomization and the date of the first objectively documented progression or the date of subsequent anti-cancer therapy, whichever comes first. Other secondary endpoints include DOR and QOL. Duration of response is defined as the time between the date of first response (CR or PR) to the date of the first documented tumor progression (per RECIST 1.1) or death due to any cause. Quality of life is measured by EORTC QLQ-C30 and […]. Further secondary endpoints also include the safety and tolerability of cemiplimab. To evaluate the safety and tolerability of cemiplimab versus platinum-based chemotherapies, safety and tolerability are measured by the incidence of AEs, serious adverse events (SAEs), deaths, and laboratory abnormalities to assess immunogenicity (ADA/Nabs) to cemiplimab and any relationship with drug concentrations, efficacy and safety. Methods: The design of this study is illustrated in FIG. 1. […] Tumor response to therapy was assessed according to RECIST 1.1, measured by CT or MRI. […] All patients received local therapy and needed to be neurologically stable before joining the trial. In patients with a known history of treated brain metastases at baseline, CT or MRI of the brain with contrast (unless contraindicated) was performed at screening (except if performed within 60 days prior to screening). Additional sites of known disease (including CNS) were also imaged at screening. During the treatment and follow-up period, surveillance imaging of the brain was performed every 18 weeks for year 1, and every 24 weeks for year 2, or sooner if clinically indicated.

[2] = system: advanced NSCLC with PD-L1 ≥50% and clinically stable treated brain metastases; assay: EMPOWER-Lung 1 post-hoc patient reported outcomes (EORTC QLQ-C30/QLQ-LC13) in brain metastases subgroup; type: in vivo, human
Method: Patient Reported Outcomes (PROs): Post-hoc exploratory analyses were conducted to evaluate PROs in this subgroup of aNSCLC patients with PD-L1 ≥50% and clinically stable treated brain metastases at baseline. PROs were assessed at baseline and day 1 of each treatment cycle for the first 6 cycles, and then on day 1 of every third cycle using EORTC QLQ-C30 and QLQ-LC13 questionnaires. Higher scores indicate better functioning, global health status (GHS)/quality of life (QoL), or worse symptom severity. Mixed model for repeated measures analyses were performed to compare overall change from baseline scores between the two treatment arms, while controlling for baseline characteristics. The baseline PRO scores of the cemiplimab arm were broadly similar with the chemotherapy arm.

[3] = system: locally advanced NSCLC (laNSCLC) with PD-L1 ≥50%; assay: EMPOWER-Lung 1 subgroup analysis: patients with locally advanced NSCLC; type: in vivo, human
Excerpt: Methods: […] Patients with locally advanced non-small cell lung cancer ([…]) were those with Stage IIIB/IIIC disease who were not candidates for definitive concurrent chemoradiotherapy. Study Design: Key eligibility criteria included: (i) treatment-naïve advanced NSCLC; […] (iii) no EGFR, ALK, or ROS1 mutations; […] Stratification factors included: histology (squamous vs non-squamous) and region (Europe, Asia, or ROW). Primary endpoints: OS and PFS. Secondary endpoints: ORR (key), DOR, HRQoL, and safety. The patients had locally advanced NSCLC, including those with Stage IIIB/IIIC disease who were not candidates for treatment with definitive concurrent chemoradiotherapy or had recurred after initial treatment with concurrent chemoradiotherapy.

[4] = system: advanced NSCLC (aNSCLC) with PD-L1 ≥50%; assay: EMPOWER-Lung 1 phase 3 study, cemiplimab monotherapy vs platinum-doublet chemotherapy, OS and PFS; type: in vivo, human; settings: cemiplimab monotherapy versus platinum-doublet chemotherapy
Excerpt: Additional objectives include further characterization of tumor responses, patient-reported outcomes, safety, and pharmacokinetics (PK). Objectives: […] Progression-free survival, the time to tumor progression (based on Response Evaluation Criteria in Solid Tumors version 1.1 [RECIST 1.1] criteria [Eisenhauer) 2009]) or death, was chosen as a primary endpoint because PFS is recognized as a marker of clinical benefit. […] Disease progression will be determined based on the RECIST 1.1 criteria (Eisenhauer 2009). […] A secondary objective of the study includes comparing the ORR of cemiplimab versus platinum-based chemotherapies. Primary Endpoints: The primary endpoints are OS and PFS (per RECIST 1.1, Eisenhauer 2009). Overall survival is defined as the time from randomization to the date of death. A patient who has not died is censored at the last known date of contact. Progression-free survival is defined as the time from randomization to the date of the first documented tumor progression or death due to any cause. Patients are censored according to the following rules: […] Study Design: […] […] Safety is assessed through the occurrence of TEAEs, vital sign evaluation, physical examination, and laboratory analyses. […] […]

[5] = system: advanced NSCLC; settings: in vivo
[6] = system: advanced NSCLC with PD-L1 ≥50%; assay: EMPOWER-Lung 1 patient-reported symptoms, functioning and QoL (EORTC QLQ-C30/QLQ-LC13), ITT population; type: in vivo, human; settings: for Definitive deterioration on key symptoms (dyspnea, cough, pain in chest, pain in other body parts, fatigue, nausea/vomiting, appetite loss, constipation, diarrhea): all P<0.05
Excerpt: Methods: EMPOWER-Lung 1 was a multicenter, open-label, randomized, controlled, Phase III, pivotal clinical trial of cemiplimab in adults (≥18 years) with: […] (ii) ECOG performance status ≤1; (iii) adequate organ and bone marrow function; and (iv) adequately treated clinically stable brain metastases (historically underrepresented in clinical trials) were allowed to enroll. […] In the intent-to-treat population, mixed-effects repeated measures models (mixed-model repeat measures, MMRM) were used to estimate least squares (LS) mean change from BL on all scales. Follow-up assessment was conducted 14 to 30 days after the last study treatment administration if a patient discontinued, or 14 to 30 days (±7 days) after the last cycle visit if the patient completed treatment. […] Scores range from 0 to 100; high scores on functional domains and low scores on symptoms reflect better outcomes. The QLQ-LC13 is a patient-reported outcome measure that assesses lung cancer disease- and treatment-specific symptoms during the past week. Scores range from 0 to 100; higher scores reflect higher symptom levels. […] MMRM analysis was used to estimate LS mean change from baseline on all scales among patients with a baseline and at least one post-baseline score. […] Hazard ratios (HRs) with 95% confidence intervals (95% CIs) were derived from the survival analyses to determine the likelihood of definitive deterioration. Analyses were based on the intention-to-treat (ITT) population consisting of all randomized patients.

[7] = after baseline, brain metastases subgroup, n=34 per arm
[8] = brain metastases subgroup, n=34 per arm
[9] = brain metastases subgroup, cemiplimab vs chemotherapy
[10] = cemiplimab n=45, chemotherapy n=42
[11] = cemiplimab n=45, chemotherapy n=42, listed as cemiplimab
[12] = Cemiplimab minus chemo, QLQ-C30, ITT
[13] = cemiplimab vs chemotherapy, ITT

cemiplimab
CNS intracranial disease progression, % of patients [1, 7]: 5.9%
CNS intracranial disease progression, patients [1, 7]: two
Best overall tumor response: Complete response, % [1, 8]: (8.8) %
Best overall tumor response: Non-evaluable, % [1, 8]: (11.8) %
Best overall tumor response: Partial response, % [1, 8]: (32.4) %
Best overall tumor response: Progressive disease, % [1, 8]: (20.6) %
Best overall tumor response: Stable disease, % [1, 8]: (26.5) %
Extra-CNS disease progression, % of patients [1, 8]: 26.5%
Extra-CNS disease progression, patients [1, 8]: 9 patients
Intracranial disease progression due to a new tumor, % of patients [1, 8]: 2.9%
Intracranial disease progression due to a new tumor, patients [1, 8]: one
Intracranial disease progression due to an existing tumor, % of patients [1, 8]: 5.9%
Intracranial disease progression due to an existing tumor, patients [1, 8]: two
ORR [1, 8]: 41.2%
OS, median ([1]; brain metastases subgroup, n=34 per arm, cemiplimab 350 mg IV Q3W or investigator's choice chemotherapy): 18.7 months
ORR ([1]; brain metastases subgroup, n=34 per arm, listed as cemiplimab): 41.2%
PFS, median ([1]; brain metastases subgroup, n=34 per arm, per independent review committee): 10.4 months
ORR odds ratio (95% CI) [1, 9]: 6.9 (1.7-27.8); P = 0.0034*
OS HR (95% CI) [1, 9]: 0.17 (0.04-0.76); P = 0.0091
PFS HR (95% CI) [1, 9]: 0.45 (0.22-0.92); P = 0.0231
Median KM estimation of brain metastasis PFS ([1]; cemiplimab versus chemotherapy, FIG. 4): superior
Difference in overall change from baseline in appetite loss ([2]; cemiplimab versus chemotherapy): −7.43
Difference in overall change from baseline in emotional functioning ([2]; cemiplimab versus chemotherapy): 7.27
Difference in overall change from baseline in role functioning ([2]; cemiplimab versus chemotherapy): 8.59
Difference in overall change from baseline in symptoms of fatigue ([2]; cemiplimab versus chemotherapy): −8.19
Overall change from baseline in GHS/QOL, difference cemiplimab versus chemotherapy ([2]; mixed model for repeated measures): 9.35
12-month OS ([3]; FIG. 9): 78.5%
12-month PFS ([3]; FIG. 10): 38.5%
Best overall response: CR, % [3, 10]: (2.2) %
Best overall response: Non-evaluable, % [3, 10]: (17.8) %
Best overall response: PD, % [3, 10]: (15.6) %
Best overall response: Partial response, % [3, 10]: (42.2) %
Best overall response: Stable disease, % [3, 10]: (22.2) %
ORR, % [3, 10]: (44.4) %
PFS, median [3, 10]: 8.4 months
ORR, % [3, 11]: 44% and 44.4%
OS, median [3, 11]: not yet reached
ORR odds ratio (95% CI) ([3]; cemiplimab vs chemotherapy): 1.8 (0.7-4.2); *P = 0.20
OS HR (95% CI) ([3]; cemiplimab vs chemotherapy): 0.5 (0.2-1.1); P = 0.0875
PFS HR (95% CI) ([3]; cemiplimab vs chemotherapy): 0.5 (0.3-0.9); P = 0.0153
Reduction in the risk of disease progression ([3]; cemiplimab vs chemotherapy): 51%
PFS HR (95% CI) ([3]; cemiplimab vs chemotherapy, listed as cemiplimab): 0.49
KM estimated DOR, median ([3]; responders: cemiplimab n=20, chemotherapy n=13): 12.5 months
Overall survival hazard ratio [4]: 0.57
Progression-free survival hazard ratio [4]: 0.54
Patients with ≥1 PRBC transfusions, % [5]: 1.1%
Patients with ≥1 platelet transfusions, % [5]: 0.3%
SAE-associated hospitalization rate [5]: 33.2 per 100 patient-years
Difference in LS mean change from BL (95% CI): Cognitive functioning [6, 12]: 2.5 (0.4-4.5)*
Difference in LS mean change from BL (95% CI): Emotional functioning [6, 12]: 3.4 (1.0-5.9)*
Difference in LS mean change from BL (95% CI): GHS/QoL [6, 12]: 5.4 (2.7-8.1)*
Difference in LS mean change from BL (95% CI): Physical functioning [6, 12]: 4.2 (1.6-6.7)*
Difference in LS mean change from BL (95% CI): Role functioning [6, 12]: 3.3 (0.2-6.3)*
Difference in LS mean change from BL (95% CI): Social functioning [6, 12]: 5.2 (2.5-7.9)*
LS mean change (SE) from baseline in GHS/QOL across all timepoints ([6]; MMRM analysis, EORTC QLQ-C30, C2 to C15): 7.1 (1.0)
Definitive deterioration on key symptoms (dyspnea, cough, pain in chest, pain in other body parts, fatigue, nausea/vomiting, appetite loss, constipation, diarrhea) ([6]; cemiplimab versus chemotherapy): lower likelihood of definitive deterioration
Definitive deterioration on key symptoms (dyspnea, cough, pain in chest, pain in other body parts, fatigue, nausea/vomiting, appetite loss, constipation, diarrhea) ([6]; cemiplimab versus chemotherapy, listed as cemiplimab): significantly lower risk of definitive deterioration
Definitive deterioration of treatment-related symptoms of peripheral neuropathy and alopecia ([6]; cemiplimab versus chemotherapy, both P<0.05): lower likelihood of definitive deterioration; also recorded: lower risk of definitive deterioration
HR (95% CI) for definitive deterioration: Cognitive functioning [6, 13]: 0.64 (0.44-0.93)*
HR (95% CI) for definitive deterioration: Emotional functioning [6, 13]: 0.49 (0.30-0.79)*
HR (95% CI) for definitive deterioration: GHS/QoL [6, 13]: 0.73 (0.52-1.03)
HR (95% CI) for definitive deterioration: Physical functioning [6, 13]: 0.59 (0.42-0.84)*
HR (95% CI) for definitive deterioration: Role functioning [6, 13]: 0.65 (0.46-0.92)*
HR (95% CI) for definitive deterioration: Social functioning [6, 13]: 0.50 (0.35-0.72)*

— US20250270321A1, “METHODS OF TREATING LUNG CANCER BY ADMINISTERING A PD-1 INHIBITOR” (priority 2021, published 2025)
